Active and inactive are the calls of the source. The rule behind the calls is not given here.
Molecular target: C-X-C chemokine receptor type 6 (Homo sapiens) (UniProt O00574)
Test: CXCR6 receptor antagonists, dose response, cell-based, beta-arrestin, DiscoveRx, APJ panel, uHTS hits (AID 624129)
Details: CXCR6 beta-arrestin (DiscoveRx) antagonist cell assay; for outcome: CXCR6, dose range 1; for inhibition: CXCR6, run 2, dose range 1, at 79 µM (top of the series)
[1] = CXCR6, dose range 1, mean IC50 across replicates

Chain of C-X-C chemokine receptor type 6 (Homo sapiens) (O00574 whole entry, looked up): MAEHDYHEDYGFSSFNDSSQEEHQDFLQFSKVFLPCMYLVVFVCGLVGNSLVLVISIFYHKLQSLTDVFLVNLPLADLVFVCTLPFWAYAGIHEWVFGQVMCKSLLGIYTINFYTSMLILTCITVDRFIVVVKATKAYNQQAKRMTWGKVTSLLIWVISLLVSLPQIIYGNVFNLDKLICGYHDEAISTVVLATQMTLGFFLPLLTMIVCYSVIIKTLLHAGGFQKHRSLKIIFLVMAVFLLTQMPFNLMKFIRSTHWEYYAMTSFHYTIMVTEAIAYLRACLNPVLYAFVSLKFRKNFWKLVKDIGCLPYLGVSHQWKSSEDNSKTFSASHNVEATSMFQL

SMILES | outcome | IC50 [1] | IC50 (CXCR6, run 1, dose range 2) | inhibition | IC50 (CXCR6, run 2, dose range 2)
COc1cccc(-c2nnc(NC(=O)c3ccc(Cl)s3)o2)c1 | inactive | 14.3 µM | 12.5 µM | 67.6% | 16.1 µM
O=C(NC(=S)N(CCc1ccccc1)CCc1ccccc1)c1ccco1 | inactive | 26 µM | 8.84 µM | 68.8% | 43.2 µM
CS(=O)(=O)c1ncc(Cl)c(C(=O)Nc2ccc(OC(F)F)cc2)n1 | inactive | 13.3 µM | 12.4 µM | 113% | 14.2 µM
COc1ccc(NC(=S)NNc2ccc([N+](=O)[O-])cc2S(=O)(=O)Nc2ccc(C)cc2C)cc1 | inactive | 35.1 µM | > 79 µM | 106% | 35.1 µM
CCOC(=O)CS(=O)(=O)c1nc(-c2ccccc2)cc(C(F)(F)F)n1 | inactive | 18.9 µM | 17.7 µM | 108% | 20.2 µM
O=[N+]([O-])c1ccc(N/N=C/c2sc(N3CCOCC3)nc2-c2ccccc2)c(S(=O)(=O)Nc2ccccc2Cl)c1 | inactive | 27.6 µM | 27.6 µM | 95.7% | > 79 µM
CCOC(=O)c1ccc(NC(=O)c2nc(S(=O)(=O)Cc3ccccc3)ncc2Cl)cc1 | inactive | 12.9 µM | 12.3 µM | 111% | 13.5 µM
C=CCSC1=N/C(=C\c2cc(OCC)c(OC(C)=O)c([N+](=O)[O-])c2)C(=O)S1 | inactive | 47.2 µM | 61 µM | 96.9% | 33.4 µM
C=CC[C@H](CC(=O)N(CCO)Cc1ccccc1)C(=O)NC[C@H](OC(=O)[C@@H](CC=C)CC(=O)OC(C)(C)C)c1ccccc1 | inactive | 31 µM | 33.1 µM | 76.8% | 29 µM
COc1ccc(CNC(=O)c2nc(S(=O)(=O)Cc3ccccc3)ncc2Cl)cc1 | inactive | 17.9 µM | 15.1 µM | 108% | 20.7 µM
COc1cc(/C=C/c2ccc3cccc(OC)c3n2)c(OC(C)=O)c([N+](=O)[O-])c1 | inactive | 28.4 µM | 35 µM | 78.8% | 21.8 µM
Cc1ccc(CS(=O)(=O)c2ncc(Cl)c(C(=O)Nc3ccc(OC(F)F)cc3)n2)cc1 | inactive | 12.6 µM | 12.6 µM | 105% | > 79 µM
Nc1nc(N)c2c(ccc3c2ccn3Cc2cccc([N+](=O)[O-])c2)n1 | inactive | 16.9 µM | 15.8 µM | 110% | 18 µM
COc1ccc(-c2c(C(=O)c3ccccc3)[nH]c(N)c2C(=O)c2ccc(Br)cc2)cc1OC | inactive | 17.4 µM | 16.4 µM | 86.6% | 18.4 µM
O=C(NCc1cccnc1)/C(=C\c1ccc(-c2cccc(Cl)c2)o1)S(=O)(=O)c1ccccc1 | inactive | 13.8 µM | 11.9 µM | 88.9% | 15.7 µM
CS(=O)(=O)c1ccc(C(=O)OCC(=O)N2CCN(CCC3CCCCC3)CC2)cc1[N+](=O)[O-] | inactive | 11.2 µM | 10.6 µM | 111% | 11.8 µM
CN(C)/C=C/c1oc2ccc(O)cc2c1[N+](=O)[O-] | inactive | 17.5 µM | 18.5 µM | 93.1% | 16.4 µM
CCCCC(=O)NC(=S)Nc1ccccc1C(=O)Nc1ccccc1 | inactive | 11.4 µM | 10.5 µM | 79.2% | 12.3 µM
Cc1ccc(NC(=O)c2nc(S(=O)(=O)Cc3ccccc3)ncc2Cl)cc1 | inactive | 15.3 µM | 15.2 µM | 111% | 15.5 µM

From PubChem BioAssay AID624129 (Sanford-Burnham Center for Chemical Genomics, 2012)
